Data: paper PMC12596500, “Affinity-selected peptide ligands specifically bind i-motif DNA and modulate c-Myc gene expression” (Nucleic Acids Research, 2025)
Read-outs that look alike come from different tables or passages of the source. Peptide text beside a SMILES is read from it.

Assays:
[1] = tested on: c-Myc promoter (Del-4) Firefly luciferase reporter in HEK293 cells; assay: Dual-luciferase reporter assay, c-Myc promoter; format: cell-based, human; settings: HEK293, 4 h, 1, 5 or 10 µM peptide with Nanocin Pro; Firefly/Renilla normalised to 0.2% DMSO; P < 0.001
Protocol: Cell studies: HEK293 cells (ATCC CRL-1573™, passages 20–28), MCF-7 cells (ATCC HTB-22™, passages 21–28), and Panc-1 cells (ATCC CRL-1469™, passages 15–22) were cultured in Dulbecco's Modified Eagle's Medium (DMEM) medium supplemented with 10% fetal bovine serum (FBS; Gibco, UK) and maintained under standard cell culture conditions (37°C, 5% CO2). Cells were passaged every 3–4 days at ∼80% confluency. For experiments, the cells were seeded into six-well plates at a density of 1 × 10⁵ cells/well in DMEM containing 10% FBS. […] Cell proliferation was assessed at 4 and 24 h post-treatment using the CellTiter 96® Aqueous One Solution Cell Proliferation Assay (Promega, USA). For this, 20 µl of reagent was added per well, and absorbance at 490 nm was measured after 4 and 24 h using a SpectraMax iD3 plate reader (Molecular Devices, UK). Blank values (media without cells) were subtracted, and readings were normalized to DMSO-treated controls. […] Statistical significance was determined using one-way ANOVA followed by Holm–Šídák post-hoc analysis performed in GraphPad Prism version 10.1.2. […]

[2] = target: c-MycG52; assay: UV titration, c-MycG52; format: binding
Protocol: (§1) UV titrations were recorded using an Agilent Cary-60 UV/VIS spectrometer with a 10 mm path length black-walled quartz cuvette. Oligonucleotides (c-MycC27, c-MycC52, c-MycG27, c-MycG52, DAPc, DAPg, and dsDNA; sequences listed in Supplementary Table S1) were annealed as 250 µM stock solutions in 10 mM sodium cacodylate buffer (pH 6.6) in the presence or absence of 100 mM KCl. Spectra were recorded at room temperature over a wavelength range of 300–500 nm with 1 nm intervals. Buffer-only spectra were recorded and subtracted from each dataset as blanks. Peptide ligands were prepared as 1 mM stock solutions in DMSO and added to the cuvette at a final concentration of 10 µM in buffer prior to DNA addition. DNA stock was diluted to 50 µM in buffer and was added stepwise to the peptide solution to reach 2.5 µM final concentration, followed by additions from the 250 µM DNA stock to reach final DNA concentrations of 30 or 50 µM. The absorbance at 350 nm was monitored and plotted against DNA concentration. Binding curves were fitted using a one-site binding model in GraphPad Prism version 10.1.2, and Kd values were determined from normalized data to represent the DNA-ligand bound fraction.
(§2) Despite the demonstrable importance of the extended five-tract C-rich sequence within the c-Myc promoter, most studies looking at ligand binding use the shorter sequences. […] Although the iM-targeting antibody is specific for iM as a structure, it also binds multiple types of iM-structures.

[3] = target: c-MycC52; assay: UV titration, c-MycC52; format: binding; settings: for Kd: average of three experiments ± SD, SD; for selectivity for c-MycC52 against the complementary G4 forming sequence: from UV titration Kd values
Protocol: as §1, §2

[4] = UV titration at 350 nm, 10 µM peptide, 10 mM sodium cacodylate pH 6.6, no KCl, binding did not plateau at the concentration range, read-out: Kd c-MycG52
[5] = read-out: Kd c-MycG52, 100 mM KCl, UV titration, 10 mM sodium cacodylate 100 mM potassium chloride pH 6.6, average of three experiments ± SD, SD
[6] = UV titration at 350 nm, 10 µM peptide, 10 mM sodium cacodylate pH 6.6, no KCl, room temperature, read-out: Kd c-MycC52
[7] = read-out: Kd c-MycC52, 100 mM KCl, UV titration, 10 mM sodium cacodylate 100 mM potassium chloride pH 6.6

| Structure (SMILES) | luciferase activity (c-Myc promoter activity) vs vehicle-only control [1] | Kd [2, 4] [nM] | Kd [2, 5] [nM] | Kd [3, 6] [nM] | selectivity for c-MycC52 against the complementary G4 forming sequence [3] | Kd [3, 7] [nM] |
| --- | --- | --- | --- | --- | --- | --- |
| CC(=O)N1CCC[C@H]1C(=O)N[C@H](C(=O)N[C@@H](CC(N)=O)C(=O)N[C@H](C(=O)N[C@@H](CO)C(=O)NCC(=O)N[C@@H](CCCNC(=N)N)C(=O)N[C@@H](CC(N)=O)C(=O)N[C@@H](Cc1ccc(O)cc1)C(=O)N[C@@H](CC(C)C)C(=O)N[C@@H](Cc1ccccc1)C(=O)N[C@@H](CS)C(N)=O)C(C)C)[C@@H](C)O [Pep-PTN] (Ac-PTNVSGRNYLFC-NH2) | concentration-dependent decreases in luciferase activity | > 50000 | 45000 ± 4000 | 930 ± 80 | about 50 fold | 1540 ± 30 |
| CC(=O)N[C@H](C(=O)N[C@@H](CO)C(=O)N[C@@H](CCC(=O)O)C(=O)N[C@@H](C)C(=O)N[C@@H](Cc1c[nH]c2ccccc12)C(=O)N[C@@H](CCCCN)C(=O)N[C@@H](CCC(=O)O)C(=O)N[C@H](C(=O)N[C@@H](CCCCN)C(=O)NCC(=O)N[C@@H](Cc1ccccc1)C(=O)N[C@@H](Cc1ccccc1)C(N)=O)C(C)C)C(C)C [Pep-VSE] (Ac-VSEAWKEVKGFF-NH2) | concentration-dependent decreases in luciferase activity | > 50000 | 35000 ± 3000 | 430 ± 30 | ~100 fold | 690 ± 60 |
